From patent publication US20180015080A1, “COMPOSITIONS AND METHODS FOR TREATMENT IN PARKINSON'S DISEASE PATIENTS” (priority 2013, published 2018)

Assays:
[1] = cited from earlier work
PD patients with LIDS = settings: patients with idiopathic PD and LIDS, one oral dosage per day, 4 mg/day escalated to 24 mg/day
Description: Patients with idiopathic PD and LIDS are enrolled in a clinical study. […] The patient population in this study is typical of those patients with LIDS. Upon randomization of patients for receiving study agent or placebo, there are no statistically significant differences in baseline parameters between the 2 groups.
The study consists of 3 phases: a treatment period, a drug taper period, and a follow-up period. Subjects are randomly assigned to receive either a nicotine salt or placebo (pbo). Treatment is with one oral dosage per day containing a nicotine salt or placebo. […]
Safety is assessed by incidences of adverse experiences (AE), clinical laboratory tests, serum cotinine, ECG and vital signs. Impulsive symptoms are assessed using the Jay Modified Minnesota Impulsive Disorders Interview (JayMidi). Withdrawal symptoms are evaluated using the Minnesota Nicotine Withdrawal Scale (MNWS-R).
Efficacy is assessed using the UPDRS (total of Parts II+III+IV), sum of Q32+Q33, Unified Dyskiensia Rating Scale (UDysRS) total scores and subscores, Lang-Fahn Dyskinesia Acitivties of Daily Living Scale (LF-ADL), CGI-C and PGI-C scales, and responder analyses (subjects with >25% improvement from baseline) on UDysRS total score and LF-ADL, and % subjects with any improvement on PGI-C and CGI-C. […]

Row | Compound | solubility in water [1] | adverse experiences (AE) (PD patients with LIDS) | improvement on patient- and physician-rated outcome measures (UPDRS, UDysRS, LF-ADL, CGI-C, PGI-C) compared to pbo (PD patients with LIDS; majority of outcome measures)
1 | N[C@@H](Cc1ccc(O)c(O)c1)C(=O)O [Levodopa, L-3,4-dihydroxyphenylalanine (S)-2-amino-3-(3,4-dihydroxyphenyl)propanoic acid] | slightly soluble | – | –
2 | CN1CCC[C@H]1c1cccnc1 [nicotine, 3-[(2S)-1-methylpyrrolidin-2-yl]pyridine] | – | no unexpected AEs occur | trend towards statistically significant improvement
